Experiment: xn = mol fraction of the nth substance listed
Conditions: Liquid

CCCCO [butan-1-ol] + O=C=O
Conditions | mass density [kg/m3]
332.94 K, 21042 kPa, x2 = 0.9698 | 765.72
332.94 K, 21997 kPa, x2 = 0.9698 | 776.05
332.94 K, 22013 kPa, x2 = 0.0251 | 799.22
332.94 K, 22983 kPa, x2 = 0.9698 | 785.85
332.94 K, 23023 kPa, x2 = 0.0251 | 800
332.94 K, 23838 kPa, x2 = 0.9698 | 793.78
332.94 K, 24078 kPa, x2 = 0.0251 | 800.8
332.94 K, 25033 kPa, x2 = 0.0251 | 801.51
332.96 K, 2025 kPa, x2 = 0.0857 | 785.34
332.96 K, 3025 kPa, x2 = 0.0857 | 786.35
332.96 K, 3995 kPa, x2 = 0.0857 | 787.3
332.96 K, 5006 kPa, x2 = 0.0857 | 788.3
332.96 K, 6029 kPa, x2 = 0.0857 | 789.27
332.96 K, 6996 kPa, x2 = 0.0857 | 790.2
332.96 K, 8001 kPa, x2 = 0.0857 | 791.2
332.96 K, 9060 kPa, x2 = 0.0857 | 792.17
332.96 K, 10005 kPa, x2 = 0.0857 | 793.04
332.96 K, 11020 kPa, x2 = 0.0857 | 793.96
332.96 K, 12043 kPa, x2 = 0.0857 | 794.89
332.96 K, 13021 kPa, x2 = 0.0857 | 795.74
332.96 K, 14023 kPa, x2 = 0.0857 | 796.64
332.96 K, 15013 kPa, x2 = 0.0857 | 797.55
332.96 K, 15989 kPa, x2 = 0.0857 | 798.3
332.96 K, 17015 kPa, x2 = 0.0857 | 799.17
332.96 K, 18001 kPa, x2 = 0.0857 | 799.98
332.96 K, 18996 kPa, x2 = 0.0857 | 800.8
332.96 K, 20012 kPa, x2 = 0.0857 | 801.65
332.96 K, 21010 kPa, x2 = 0.0857 | 802.47
332.96 K, 22025 kPa, x2 = 0.0857 | 803.27
332.96 K, 22983 kPa, x2 = 0.0857 | 804.05
332.96 K, 24061 kPa, x2 = 0.0857 | 804.91
332.96 K, 25000 kPa, x2 = 0.0857 | 805.68
332.99 K, 11100 kPa, x2 = 0.4972 | 807.58
332.99 K, 12062 kPa, x2 = 0.4972 | 809.21
332.99 K, 13082 kPa, x2 = 0.4972 | 810.88
332.99 K, 14087 kPa, x2 = 0.8663 | 752.33
332.99 K, 14115 kPa, x2 = 0.4972 | 812.58
332.99 K, 15053 kPa, x2 = 0.8663 | 762.95
332.99 K, 15061 kPa, x2 = 0.4972 | 814.12
332.99 K, 16035 kPa, x2 = 0.4972 | 815.66
332.99 K, 16081 kPa, x2 = 0.8663 | 772.94
332.99 K, 17073 kPa, x2 = 0.8663 | 781.43
332.99 K, 17108 kPa, x2 = 0.4972 | 817.32
332.99 K, 18040 kPa, x2 = 0.4972 | 818.75
332.99 K, 18052 kPa, x2 = 0.8663 | 789.26
332.99 K, 19036 kPa, x2 = 0.4972 | 820.22
332.99 K, 19049 kPa, x2 = 0.8663 | 796.49
332.99 K, 20021 kPa, x2 = 0.8663 | 803.04
332.99 K, 20051 kPa, x2 = 0.4972 | 821.73
332.99 K, 21046 kPa, x2 = 0.8663 | 809.49
332.99 K, 21048 kPa, x2 = 0.4972 | 823.17
332.99 K, 22048 kPa, x2 = 0.4972 | 824.6
332.99 K, 22064 kPa, x2 = 0.8663 | 815.51
332.99 K, 23005 kPa, x2 = 0.8663 | 820.74
332.99 K, 23047 kPa, x2 = 0.4972 | 826
332.99 K, 24018 kPa, x2 = 0.4972 | 827.36
332.99 K, 24028 kPa, x2 = 0.8663 | 826.19
332.99 K, 25056 kPa, x2 = 0.4972 | 828.77
332.99 K, 25067 kPa, x2 = 0.8663 | 831.43
333 K, 12077 kPa, x2 = 0.5965 | 809.05
333 K, 13047 kPa, x2 = 0.5965 | 811.32
333 K, 14101 kPa, x2 = 0.5965 | 813.7
333 K, 15079 kPa, x2 = 0.5965 | 815.86
333 K, 16069 kPa, x2 = 0.5965 | 817.96
333 K, 17045 kPa, x2 = 0.5965 | 820
333 K, 18064 kPa, x2 = 0.5965 | 822.1
333 K, 19045 kPa, x2 = 0.5965 | 824.02
333 K, 20044 kPa, x2 = 0.5965 | 825.94
333 K, 21039 kPa, x2 = 0.5965 | 827.8
333 K, 22043 kPa, x2 = 0.5965 | 829.66
333 K, 23048 kPa, x2 = 0.5965 | 831.48
333 K, 24011 kPa, x2 = 0.5965 | 833.21
333 K, 25086 kPa, x2 = 0.5965 | 835.1
333.08 K, 6035 kPa, x2 = 0.1842 | 792
333.08 K, 7047 kPa, x2 = 0.1842 | 793.11
333.08 K, 8021 kPa, x2 = 0.1842 | 794.16
333.08 K, 9035 kPa, x2 = 0.1842 | 795.25
333.08 K, 10030 kPa, x2 = 0.1842 | 796.3
333.08 K, 11057 kPa, x2 = 0.1842 | 797.37
333.08 K, 12025 kPa, x2 = 0.1842 | 798.41
333.08 K, 13041 kPa, x2 = 0.1842 | 799.39
333.08 K, 14034 kPa, x2 = 0.1842 | 800.34
333.08 K, 15074 kPa, x2 = 0.1842 | 801.36
333.08 K, 16022 kPa, x2 = 0.1842 | 802.27
